Source: patent US4920124A, “N-substituted 3,4-dihydropyrimidine compounds as agents for treating disorders of cardiovascular system” (Suntory Limited, priority 1987, dated 1990)

Legend:
[1] = tested on: vertebral artery; assay: vascular resistance of the vertebral artery in anesthetized dogs (ED30); assay type: in vivo, dog; conditions: Canis lupus familiaris, intravenous injection
[2] = tested on: vertebral artery; assay: time course of changes in the vascular resistance of the vertebral artery in anesthetized dogs (T1/2); assay type: in vivo, dog; conditions: injected with the ED30 doses
Method: Adult dogs of either sex (7~14 kg in body weight) were anesthetized with at first thiopental sodium (35 mg/kg, intraperitoneal), anesthetized with urethane (400 mg/kg, intravenous) and chloralose (60 mg/kg, intravenous) and kept under artificial respiration throughout the experiment. After thoracotomy at the left first intercostal space, the vertebral artery was exposed and blood flow was measured with intracorporeal flow probe connected to an electromagnetic flowmeter (MF-27, Nihon Kohden).
At the same time, continuous measurement of the following parameters was made: systemic blood pressure (mean pressure) at the right femoral artery, the limb lead II ECG, the heart rate with a tachometer triggered by the R wave of ECG, and the vascular resistance determined by loading a electronic divider unit (EO-601 G, Nihon Kohden) with the mean values of blood pressure and vertebral artery blood flow. All of these parameters were recorded simultaneously on a polygraph (RM-600, Nihon Kohden).
All the test compounds were injected through a cannula inserted into the femoral vein.
Selected compounds of the present invention were tested for their ability to reduce the resistance of the vertebral artery in anesthetized dogs.
The animals were injected with the ED30 doses of test compounds and the time course of changes in the vascular resistance were studied in the same manner as in Example 26. The time course of changes can be as shown schematically in FIG. 1. From the curve shown in FIG. 1, the values of T1/2 (min) (the time to reach 50% of the resistance drop) were calculated. The results are shown in Table 3, in which the compound numbers correspond to the Example numbers.

| Compound | ED30 [1] | T1/2 (the time to reach 50% of the resistance drop) [2] |
| --- | --- | --- |
| CC1=NC(C)=C(C(=O)OC(C)C)C(c2ccccc2[N+](=O)[O-])N1C(=O)OCCN(Cc1ccccc1)Cc1ccc(C)cc1 (centres unmarked) [Example 5] | 2.8 µg/kg | – |
| CC1=NC(C)=C(C(=O)OC(C)C)C(c2ccccc2[N+](=O)[O-])N1C(=O)OCCN(Cc1ccc(F)cc1)Cc1ccc(F)cc1 (centres unmarked) [Example 6] | 1.3 µg/kg | – |
| CC1=NC(C)=C(C(=O)OC(C)C)C(c2ccccc2[N+](=O)[O-])N1C(=O)OCCN(Cc1ccccc1)Cc1ccc(Cl)c(Cl)c1 (centres unmarked) [Example 1, 3-[2-{N-benzyl-N-(3,4-dichlorobenzyl)amino}ethoxycarbonyl]-5-isopropoxycarbonyl-2,6-dimethyl-4-(2-nitrophenyl)-3,4-dihydropyrimidine] | 2.1 µg/kg | > 25.0 min |
| CC1=NC(C)=C(C(=O)OC(C)C)C(c2ccccc2[N+](=O)[O-])N1C(=O)OCCN(Cc1ccccc1)Cc1cccc(F)c1 (centres unmarked) [Example 11] | 2.1 µg/kg | – |
| CC1=NC(C)=C(C(=O)OC(C)C)C(c2ccccc2[N+](=O)[O-])N1C(=O)OCCN(Cc1ccccc1)Cc1c(Cl)cccc1Cl (centres unmarked) [Example 25] | – | 11.7 min |
| COc1ccc(CN(CCOC(=O)N2C(C)=NC(C)=C(C(=O)OC(C)C)C2c2ccccc2[N+](=O)[O-])Cc2ccc(Cl)c(Cl)c2)cc1 (centres unmarked) [Example 21] | – | 20.0 min |
| CC1=NC(C)=C(C(=O)OC(C)C)C(c2ccccc2[N+](=O)[O-])N1C(=O)OCCN(Cc1ccccc1)Cc1ccc(C(F)(F)F)cc1 (centres unmarked) [Example 16] | – | 7.9 min |
| CC1=NC(C)=C(C(=O)OC(C)C)C(c2ccccc2[N+](=O)[O-])N1C(=O)OCCN(Cc1ccc(Cl)cc1)Cc1cccc(Cl)c1 (centres unmarked) [Example 22] | – | 19.5 min |
| CC1=NC(C)=C(C(=O)OC(C)C)C(c2ccccc2[N+](=O)[O-])N1C(=O)OCCN(Cc1ccccc1)Cc1cccc(Cl)c1 (centres unmarked) [Example 14] | – | 10.6 min |
| CC1=NC(C)=C(C(=O)OC(C)C)C(c2ccccc2[N+](=O)[O-])N1C(=O)OCCN(Cc1ccccc1)Cc1ccc(Cl)cc1Cl (centres unmarked) [Example 15] | – | > 20.0 min |
| CC1=NC(C)=C(C(=O)OC(C)C)C(c2ccccc2[N+](=O)[O-])N1C(=O)OCCN(Cc1ccccc1)Cc1ccc(F)cc1 (centres unmarked) [Example 3] | 2.6 µg/kg | – |
| CC1=NC(C)=C(C(=O)OC(C)C)C(c2ccccc2[N+](=O)[O-])N1C(=O)OCCN(Cc1ccccc1)Cc1ccccc1F (centres unmarked) [Example 9] | 2.3 µg/kg | – |
| CC1=NC(C)=C(C(=O)OC(C)C)C(c2cccc([N+](=O)[O-])c2)N1C(=O)OCCN(Cc1ccccc1)Cc1ccc(Cl)c(Cl)c1 (centres unmarked) [Example 24, 3-[2-{N-benzyl-N-(3,4-dichlorobenzyl)amino}ethoxycarbonyl]-5-isopropoxycarbonyl-2,6-dimethyl-4-(3-nitrophenyl)-3,4-dihydropyrimidine] | – | 16.0 min |
| CC1=NC(C)=C(C(=O)OC(C)C)C(c2ccccc2[N+](=O)[O-])N1C(=O)OCCN(Cc1ccccc1)Cc1ccccc1Cl (centres unmarked) [Example 13] | 4.7 µg/kg | – |
| COc1cccc(CN(CCOC(=O)N2C(C)=NC(C)=C(C(=O)OC(C)C)C2c2ccccc2[N+](=O)[O-])Cc2ccccc2)c1 (centres unmarked) [Example 10] | 1.8 µg/kg | – |
| CC1=NC(C)=C(C(=O)OC(C)C)C(c2ccccc2[N+](=O)[O-])N1C(=O)OCCN(Cc1ccccc1)Cc1ccc(Cl)cc1 (centres unmarked) [Example 4] | 2.9 µg/kg | – |
| COc1ccc(CN(CCOC(=O)N2C(C)=NC(C)=C(C(=O)OC(C)C)C2c2ccccc2[N+](=O)[O-])Cc2ccccc2)cc1 (centres unmarked) [Example 2] | 1.8 µg/kg | 8.2 min |
| CC1=NC(C)=C(C(=O)OC(C)C)C(c2ccccc2[N+](=O)[O-])N1C(=O)OCCN(Cc1ccc(Cl)cc1)Cc1ccc([N+](=O)[O-])cc1 (centres unmarked) [Example 20] | – | 10.2 min |
